Laboratory results: patent EP0984975B1, “MULTICYCLIC ERYTHROMYCIN DERIVATIVES” (Abbott Laboratories, priority 1997, dated 1998)

Legend:
Experiment in all cases: In vitro assay of antibacterial activity (agar dilution MIC)
Assay type in all cases: cell-based
[1] = tested on: STAPHYLOCOCCUS AUREUS A5177; details: BHI agar, 35-37 °C for 20 to 24 hours, unit assumed
Description: (§1) Representative compounds of the present invention were assayed in vitro for antibacterial activity as follows: Twelve petri dishes containing successive aqueous dilutions of the test compound mixed with 10 mL of sterilized Brain Heart Infusion (BHI) agar (Difco 0418-01-5) were prepared. Each plate was inoculated with 1:100 (or 1:10 for slow-growing strains, such as Micrococcus and Streptococcus) dilutions of up to 32 different microorganisms, using a Steers replicator block. The inoculated plates were incubated at 35-37 °C for 20 to 24 hours. In addition, a control plate, using BHI agar containing no test compound, was prepared and incubated at the beginning and end of each test.
(§2) An additional plate containing a compound having known susceptibility patterns for the organisms being tested and belonging to the same antibiotic class as the test compound was also prepared and incubated as a further control, as well as to provide test-to-test comparability. Erythromycin A was used for this purpose.
(§3) After incubation, each plate was visually inspected. The minimum inhibitory concentration (MIC) was defined as the lowest concentration of drug yielding no growth, a slight haze, or sparsely isolated colonies on the inoculum spot as compared to the growth control.

[2] = tested on: STAPHYLOCOCCUS AUREUS ATCC 6538P; details: BHI agar, 35-37 °C for 20 to 24 hours, unit assumed
Description: as §1, §2, §3

ESCHERICHIA COLI SS = details: unit assumed
Description: as §1, §2, §3

[3] = tested on: STAPHYLOCOCCUS EPIDERMIDIS 3519; details: unit assumed
Description: as §1, §2, §3

[4] = tested on: STREPTOCOCCUS PYOGENES PIU 2548; details: BHI agar, 35-37 °C for 20 to 24 hours, unit assumed
Description: as §1, §2, §3

M[…] ATCC 9341 = details: BHI agar, 35-37 °C for 20 to 24 hours, unit assumed
Description: as §1, §2, §3

ESCHERICHIA COLI JUHL = details: unit assumed
Description: as §1, §2, §3

[5] = tested on: STREPTOCOCCUS PYOGENES 930; details: BHI agar, 35-37 °C for 20 to 24 hours, unit assumed
Description: as §1, §2, §3

[6] = tested on: STAPHYLOCOCCUS AUREUS NCTC10649M; details: BHI agar, 35-37 °C for 20 to 24 hours, unit assumed
Description: as §1, §2, §3

EN[…] ATCC 8043 = details: BHI agar, 35-37 °C for 20 to 24 hours, unit assumed
Description: as §1, §2, §3

N. ASTEROIDES ATCC 9970 = details: BHI agar, 35-37 °C for 20 to 24 hours, unit assumed
Description: as §1, §2, §3

CANDIDA ALBICANS CCH 442 = details: BHI agar, 35-37 °C for 20 to 24 hours, unit assumed
Description: as §1, §2, §3

STR[…] 508 = details: BHI agar, 35-37 °C for 20 to 24 hours, unit assumed
Description: as §1, §2, §3

[7] = tested on: STREPTOCOCCUS BOVIS A-5169; details: BHI agar, 35-37 °C for 20 to 24 hours, unit assumed
Description: as §1, §2, §3

[8] = tested on: MYCOBACTERIUM SMEGMATIS ATCC 114; details: BHI agar, 35-37 °C for 20 to 24 hours, unit assumed
Description: as §1, §2, §3

ESCHERICHIA COLI DC-2 = details: BHI agar, 35-37 °C for 20 to 24 hours, unit assumed
Description: as §1, §2, §3

M[…] ATCC 4698 = details: BHI agar, 35-37 °C for 20 to 24 hours, unit assumed
Description: as §1, §2, §3

[9] = tested on: STAPHYLOCOCCUS AUREUS CMX 642A; details: BHI agar, 35-37 °C for 20 to 24 hours, unit assumed
Description: as §1, §2, §3

[10] = tested on: STREPTOCOCCUS PYOGENES EES61; details: BHI agar, 35-37 °C for 20 to 24 hours, unit assumed
Description: as §1, §2, §3

[11] = tested on: STAPHYLOCOCCUS AUREUS CMX 553; details: BHI agar, 35-37 °C for 20 to 24 hours, unit assumed
Description: as §1, §2, §3

[12] = tested on: STAPHYLOCOCCUS AUREUS 1775; details: BHI agar, 35-37 °C for 20 to 24 hours, unit assumed
Description: as §1, §2, §3

[13] = tested on: STAPHYLOCOCCUS AUREUS A-5278; details: BHI agar, 35-37 °C for 20 to 24 hours, unit assumed
Description: as §1, §2, §3

[14] = ESCHERICHIA COLI SS, BHI agar, 35-37 °C for 20 to 24 hours
[15] = STAPHYLOCOCCUS EPIDERMIDIS 3519, BHI agar, 35-37 °C for 20 to 24 hours
[16] = STREPTOCOCCUS PYOGENES PIU 2548
[17] = ESCHERICHIA COLI JUHL, BHI agar, 35-37 °C for 20 to 24 hours
[18] = STREPTOCOCCUS AGALACTIAE CMX 508
[19] = MYCOBACTERIUM SMEGMATIS ATCC 114

SMILES	Antibacterial Activity (MIC's) [1] [µg/mL]	Antibacterial Activity (MIC's) [2] [µg/mL]	Antibacterial Activity (MIC's) [6] [µg/mL]	Antibacterial Activity (MIC's) (N. ASTEROIDES ATCC 9970) [µg/mL]	Antibacterial Activity (MIC's) (CANDIDA ALBICANS CCH 442) [µg/mL]	Antibacterial Activity (MIC's) (ESCHERICHIA COLI DC-2) [µg/mL]	Antibacterial Activity (MIC's) [9] [µg/mL]	Antibacterial Activity (MIC's) [11] [µg/mL]	Antibacterial Activity (MIC's) [12] [µg/mL]	Antibacterial Activity (MIC's) [13] [µg/mL]	Antibacterial Activity (MIC's) (ESCHERICHIA COLI SS; [14]) [µg/mL]	Antibacterial Activity (MIC's) [3, 15] [µg/mL]	Antibacterial Activity (MIC's) [4, 16] [µg/mL]	Antibacterial Activity (MIC's) (M[…] ATCC 9341; MICROCOCCUS LUTEUS ATCC 9341) [µg/mL]	Antibacterial Activity (MIC's) (ESCHERICHIA COLI JUHL; [17]) [µg/mL]	Antibacterial Activity (MIC's) ([5]; STREPTOCOCCUS PYOGENES 930) [µg/mL]	Antibacterial Activity (MIC's) (EN[…] ATCC 8043; ENTEROCOCCUS FAECIUM ATCC 8043) [µg/mL]	Antibacterial Activity (MIC's) (STR[…] 508; [18]) [µg/mL]	Antibacterial Activity (MIC's) ([7]; STREPTOCOCCUS BOVIS A-5169) [µg/mL]	Antibacterial Activity (MIC's) [8, 19] [µg/mL]	also measured
CC[C@H]1OC(=O)[C@H](C)[C@@H](O[C@H]2C[C@@](C)(OC)[C@@H](O)[C@H](C)O2)[C@H](C)[C@@H](O[C@@H]2O[C@H](C)C[C@H](N(C)C)[C@H]2O)[C@](C)(O)C[C@@H](C)C(=O)[C@H](C)[C@@H](O)[C@]1(C)O [Ery A, Erythromycin A, reference compound]	3.1	0.2	0.39	0.1	> 100	100	0.39	0.39	> 100	> 100											Antibacterial Activity (MIC's) (ESCHERICHIA COLI SS): 0.39 µg/mL; Antibacterial Activity (MIC's) [3]: 0.2 µg/mL; Antibacterial Activity (MIC's) ([4]; STR[…] PIU 2548): 3.1 µg/mL; Antibacterial Activity (MIC's) (M[…] ATCC 9341; M[…] ATCC 9341): 0.02 µg/mL; Antibacterial Activity (MIC's) (ESCHERICHIA COLI JUHL): 50 µg/mL; Antibacterial Activity (MIC's) ([5]; STR[…] 930): > 100 µg/mL; Antibacterial Activity (MIC's) (EN[…] ATCC 8043; EN[…] ATCC 8043): 0.1 µg/mL; Antibacterial Activity (MIC's) (STR[…] 508; STR[…] 508): 0.02 µg/mL; Antibacterial Activity (MIC's) ([7]; STR[…] A-5169): 0.01 µg/mL; Antibacterial Activity (MIC's) ([8]; MYC[…] ATCC 114): 1.56 µg/mL; Antibacterial Activity (MIC's) (M[…] ATCC 4698; M[…] ATCC 4698): 0.39 µg/mL; Antibacterial Activity (MIC's) ([10]; STR[…] EES61): 0.02 µg/mL
CC[C@H]1OC(=O)[C@H](C)C(=O)[C@H](C)[C@@H](O[C@@H]2O[C@H](C)C[C@H](N(C)C)[C@H]2O)[C@](C)(OC)C[C@@H](C)C2=Nc3cccnc3N3C(=O)O[C@@]1(C)[C@H]3[C@H]2C [Ex 7, Compound of Formula (II): R^1 is methoxy; R^2 is H, R^3 is absent, the double bond is present, B, D and E are H, and Y and Z taken together with the atom to which they are attached form an oxo group]	0.39	0.39	0.39	0.1	> 100	> 100	0.39	0.39	> 100	> 100	0.78	0.39	0.39	0.05	> 100	> 100	0.1	0.05	0.05	3.1	Antibacterial Activity (MIC's) (M[…] ATCC 4698; MICROCOCCUS LUTEUS ATCC 4698): 0.39 µg/mL; Antibacterial Activity (MIC's) ([10]; STREPTOCOCCUS PYOGENES EES61): 0.05 µg/mL
C=CCO[C@]1(C)C[C@@H](C)C2=Nc3ccccc3N3C(=O)O[C@](C)([C@@H](CC)OC(=O)[C@H](C)C(=O)[C@H](C)[C@H]1O[C@@H]1O[C@H](C)C[C@H](N(C)C)[C@H]1O)[C@H]3[C@H]2C [Ex 8, Compound of Formula (I): R^1 is allyloxy; R^2 is H, R^3 is absent, the double bond is present, A, B, D and E are H, and Y and Z taken together with the atom to which they are attached form an oxo group]	0.78	0.78	0.78	3.1	> 100	> 100	0.78	0.78	> 100	> 100	12.5	1.56	0.78	0.78	> 100	> 100	0.78	0.39	0.1	6.2	Antibacterial Activity (MIC's) (M[…] ATCC 4698; MICROCOCCUS LUTEUS ATCC 4698): 1.56 µg/mL; Antibacterial Activity (MIC's) ([10]; STREPTOCOCCUS PYOGENES EES61): 0.39 µg/mL
